{"source": "patent US9404916B2", "about": "“Use of a protein kinase inhibitor to detect immune cells, such as T cells” (University College Cardiff Consultants Limited, priority 2008, dated 2016)", "key": {"[1]": {"test_system": "ILA1 CTL", "experiment": "pMHCI tetramer staining of ILA1 CTL clone after PKI pre-treatment (flow cytometry)", "type": "cell-based, human", "details": "for enhancement of tetramer staining after PKI pre-incubation: ILA1 CTL, data not shown"}, "[2]": {"test_system": "T-cell clones", "experiment": "Recovery of responsiveness to antigen after drug removal", "type": "cell-based", "details": "T-cell clones incubated in 50 nM dasatinib for 24 hours; data not shown"}, "[3]": {"test_system": "CTL lines (Melan-A/Mart-1 26-35 and influenza matrix M1 58-66)", "experiment": "Cognate tetramer staining of HLA A2-restricted CTL lines expanded from PBMC", "type": "cell-based, human", "details": "50 nM dasatinib"}, "[4]": {"test_system": "tetramer-positive CD3+CD8+ T-cells", "type": "cell-based, human", "protocol": ". It is known that pMHCI tetramer-induced signaling can trigger cell death (Purbhoo et al., 2001; Xu et al., 2001; Guillaume et al., 2003; Cebecauer et al., 2005). Cell death induced by tetramer staining was assessed using the amine-reactive viability dye GrViD at the end of the staining procedure, which is spectrally distinct from ViViD. PBMC were stained with ViViD to identify and allow exclusion of dead and dying cells prior to the addition of pMHCI tetramer; GrVID staining was performed after pMHCI tetramer and surface antibody staining. Data were acquired on a BD LSR II flow cytometer and analyzed using FlowJo software. ViViD^±, CD14^+ and CD19^+ cells were excluded from the analysis and the frequency of GrViD-positive cells was assessed in the tetramer-positive CD3+CD8^+ T-cell populations. Representative flow profiles are shown here for CD^+T-cells specific for the HLA A2-restricted epitopes CMV pp65495-503 ([…](SEQ ID NO:3)) and EBV BMLFI259-267 ([…] SEQ ID NO:4)). […]. […] Stained PBMC were acquired on a BD LSR II (Becton Dickinson Immunocytometry Systems, San Jose, Calif., USA) and analyzed using FlowJo software (Tree Star, Inc., Ashland, Oreg., USA)."}, "[5]": {"test_system": "naïve murine F5 TCR CTL", "experiment": "H2-Db/[…] tetramer staining of F5 TCR transgenic splenocytes", "type": "cell-based, mouse", "details": "50 nM dasatinib 30 minutes", "text": "C. […] Samples were washed with PBS before flow cytometric analysis."}, "[6]": {"test_system": "ILA1 CTL", "experiment": "TCR and CD8 expression levels at the CTL cell surface", "type": "cell-based, human", "details": "50 nM dasatinib 37° C."}, "[7]": {"experiment": "Shelf-life of working solution", "type": "physicochemical", "details": "100 nM in PBS", "protocol": "Biological activity was tested in a cell death titration assay on BA/F3 bcr-abl cells as described previously (Magnusson et al., 2002). […] The 1 mM DMSO stock was diluted 1/10,000 in PBS on the day of experimentation to achieve a working solution of 100 nM; subsequent ½ dilution yielded a final concentration of 50 nM in cellular assays unless stated otherwise. The 100 nM working solution was always made up on the day of experimentation as the shelf-life of this solution is short (˜days). Staurosporine (Biomol), Lck inhibitor II (Calbiochem), genestein (calbiochem), herbimycin A (Calbiochem), PP2 (Calbiochem) and PP3 (Calbiochem) were dissolved and stored at −20° C. in DMSO. PKIs were dissolved in PBS prior to use and tested at concentrations of 1 nM, 3 nM, 5 nM, 10 nM, 20 nM, 50 nM, 100 nM, 250 nM, 500 nM and 1 μM."}, "[8]": {"test_system": "antigen-specific CD8+ T-cells in PBMC", "experiment": "pMHCI tetramer staining of PBMC directly ex vivo", "type": "cell-based, human"}, "[9]": {"test_system": "HLA DR*0101-restricted CD4+ T-cell clone C6", "details": "50 nM dasatinib 30 minutes"}, "[10]": {"test_system": "T-cells", "details": "cited from earlier work"}, "[11]": {"test_system": "ILA1 CTL", "experiment": "pMHCI tetramer on-rate experiment", "details": "dasatinib+tetramer; 50 nM 30 minutes 37° C.; HLA A2/hTERT540-548 tetramer"}, "[12]": {"test_system": "Mel13 CTL", "experiment": "Antigen-induced TCR downregulation", "details": "50 nM dasatinib; peptide-pulsed C1R-A2 B cells, 4 hours"}, "[13]": {"biological_target": "IE6 TCR (on CTL clone IE6)"}, "[14]": {"biological_target": "Short term line"}}, "note": "Several values for one entry are separate records, joined by “and”; a condition that tells them apart may be missing. Identical values can stand only once. Entries after “also recorded” stand apart in the source; their conditions may differ."}
{"compound": "CC(C)(C)n1nc(-c2ccc(Cl)cc2)c2c(N)ncnc21", "note": "[PP2]", "values": [{"measurement": "enhancement of tetramer staining after PKI pre-incubation", "setting": "[1]", "value": "moderate increase"}]}
{"compound": "Nc1ncnc2c1cnn2-c1ccccc1", "note": "[PP3]", "values": [{"measurement": "enhancement of tetramer staining after PKI pre-incubation", "setting": "[1]", "value": "no significant enhancement"}]}
{"compound": "Cc1nc(Nc2ncc(C(=O)Nc3c(C)cccc3Cl)s2)cc(N2CCN(CCO)CC2)n1", "note": "[dasatinib, N-(2-chloro-6-methyl-phenyl)-2-(6-(4-(2-hydroxyethyl)-piperazin-1-yl)-2-methylpyrimidin-4-ylamino)thiazole-5-carboxamide]", "values": [{"measurement": "increase in pMHCI tetramer staining", "setting": "[1]", "value": 60, "unit": "%"}, {"measurement": "increase in pMHCI tetramer staining intensity", "setting": "[1]", "value": 89, "unit": "%"}, {"measurement": "time to regain responsiveness to antigen after drug removal", "setting": "[2]", "value": "≤ 1", "unit": "h"}, {"measurement": "increase in fluorescence intensity of T-cells that bound tetramer weakly", "setting": "[3]", "value": "> 20", "unit": "fold"}, {"measurement": "increase in staining intensity of all cognate CD8+ T-cells", "setting": "[3]", "value": "at least 2 fold"}, {"measurement": "frequency of GrViD-positive dead cells within the tetramer-positive population", "setting": "[4]", "value": "always lower; also recorded: reduced"}, {"measurement": "pMHCI tetramer staining of naïve murine F5 TCR CTL directly ex vivo", "setting": "[5]", "value": "enhanced"}, {"measurement": "time until significant increases in TCR and CD8 levels", "setting": "[6]", "value": "> 30", "unit": "min"}, {"measurement": "shelf-life of 100 nM working solution", "setting": "[7]", "value": "short"}, {"measurement": "pMHCI staining intensity and percentage of antigen-specific CD8+ T-cells", "setting": "[8]", "value": "substantial increase"}, {"measurement": "pMHCII tetramer staining of CD4+ T-cell clone", "setting": "[9]", "value": "enhanced"}, {"measurement": "concentrations not toxic to T-cells in the short term", "setting": "[10]", "value": "< 100", "unit": "nM"}, {"measurement": "tetramer on-rate, fast rate", "setting": "[11]", "value": 0.42, "unit": "min⁻¹"}, {"measurement": "tetramer on-rate, slow rate", "setting": "[11]", "value": 0.06, "unit": "min⁻¹"}, {"measurement": "antigen-induced TCR downregulation from the CTL surface", "setting": "[12]", "value": "block antigen-induced TCR downregulation"}]}
{"compound": "O=c1c(-c2ccc(O)cc2)coc2cc(O)cc(O)c12", "note": "[genestein]", "values": [{"measurement": "enhancement of tetramer staining after PKI pre-incubation", "setting": "[1]", "value": "no significant enhancement"}]}
{"compound": "CO[C@H]1[C@@H](OC)C[C@H](C)[C@@H](OC)C2=CC(=O)C=C(NC(=O)/C(C)=C/C=C\\[C@H](OC)[C@@H](OC(N)=O)/C(C)=C/[C@@H]1C)C2=O", "note": "[herbimycin, herbimycin A]", "values": [{"measurement": "enhancement of tetramer staining after PKI pre-incubation", "setting": "[1]", "value": "no significant enhancement"}]}
{"compound": "CN[C@@H]1C[C@H]2O[C@@](C)([C@@H]1OC)n1c3ccccc3c3c4c(c5c6ccccc6n2c5c31)C(=O)NC4", "note": "[staurosporine]", "values": [{"measurement": "enhancement of tetramer staining after PKI pre-incubation", "setting": "[1]", "value": "no significant enhancement"}]}
{"compound": "HLA A2 presenting PPI15-24 peptide on pulsed target cells (from UniProt P61769 21-119) (peptide-MHC)", "values": [{"measurement": "% TNFα-positive cells (intracellular cytokine staining, TNF-APC against SSC-Height, 6 h with PPI peptide)", "setting": "[13]", "value": 30.9, "unit": "%"}]}
{"compound": "HLA A2/PPI15-24 tetramer (from UniProt P61769 21-119) (peptide-MHC)", "values": [{"measurement": "MFI", "setting": "[14]", "value": "217 and 347"}]}
